Laboratory results taken from paper PMC7466159, “Anti-Metastasis Fascin Inhibitors Decrease the Growth of Specific Subtypes of Cancers” (Cancers, 2020).

How the values were obtained:
[1] = test system: KARPAS 299 lymphoma cells; test: Cell growth sensitivity, KARPAS 299; type: cell-based
[2] = test system: NF-κB nuclear translocation in Ly10 cells; test: p65 (NF-κB) nuclear translocation, Western blotting, Ly10; type: cell-based; settings: 30 µM, 16 h
MDA-MB-468 tumor cells = test: MDA-MB-468 breast cancer model in NSG mice (tumor growth, overall survival); type: in vivo; settings: treatment from Day 14, compared with the control group
Experimental: MDA-MB-468 cells and HCC38 cells grew in the presence of EGF with or without NP-G2-044. […] Finally, we used the animal model to investigate whether the primary tumor growth of MDA-MB-468 cells was sensitive to fascin inhibitors. MDA-MB-468 tumor cells were implanted into the mammary gland of NSG mice, and these mice were randomly divided into four groups. One group of mice was used as control (Figure 6I). The second group of mice was treated with the fascin inhibitor NP-G2-044 (Figure 6I). The third group was treated with the EGFR inhibitor gefitnib (Figure 6I), and the fourth group was treated with the combination of NP-G2-044 + gefitinib (Figure 6I). […] We dissected the primary tumor tissues 55 days after the tumor implantation from some mice. […] Furthermore, the overall survival of the mice was analyzed (Figure 6K).
For the breast cancer model, MDA-MB-468 cells (5 × 10^6) suspended in PBS-matrigel (v/v, 1:1) were injected subcutaneously into the abdominal mammary gland area of female NSG mice on Day 0 as previously described. Starting on Day 14, NP-G2-044 was given once a day for 5 days every week by gavage at 300 mg kg^−1 per mouse until their death. Starting on Day 14, gefitinib was given twice weekly by gavage at 150 mg kg^−1 per mouse until their death. The control solvent was given once a day for 5 days every week by gavage according to their body weight until their death. […] The primary tumor volume was calculated as length × width^2 ×π/6.

[3] = test system: NCI-H660 human neuroendocrine prostate cancer cells
Experimental: To investigate the effect of NP-G2-044 on the overall survival of mice bearing NCI-H660 tumors, NCI-H660 tumor cells were injected into the prostate of male NSG mice. NCI-H660 tumor-bearing mice were randomized into two groups. In the control group, the vehicle solvent was given (marked as the “control” group) (Figure 3F). In the second group, the mice were treated with NP-G2-044 (5 days per week by an oral gavage). NP-G2-044 treatment started on Day 7.
Human neuroendocrine prostate cancer NCI-H660 cells (1 × 10^5) suspended in PBS were injected into the prostate of male NSG mice (6- to 8-week old from the Jackson Lab) on day 0 as previously described [56]. Briefly, the abdomen was cleaned with iodine solution, and a 1-cm midline incision was created to expose the prostate gland. A 29-gauge needle and a 1-mL disposable syringe were used for the injection of the cell suspension. The needle was inserted into the middle portion of the right anterior lobe, and then was directed towards the cranial portion of the lobe. The abdominal wound was closed in 2 layers with surgical sutures. Starting on Day 7, NP-G2-044 or the control solvent was given once a day for 5 days a week by oral gavage. […] The death of the mice was used as the endpoint.

[4] = test system: phosphorylation of PI3K, AKT, JNK, and STAT6; test: Western blotting of signaling pathways in U2932 cells; type: cell-based; settings: 30 µM, 16 h
Experimental: We treated U2932 cells with or without NP-G2-044, and measured the potential effects of NP-G2-044 on various pathways critical for lymphoma cell growth.
The lymphoma cells were plated in 10-cm dish. After culture for 24 h, cells were incubated in serum-free medium for 16 h. Cells were then incubated in growth medium with 30 µM NP-G2-044 or dissolvent for 16 h, followed by collecting whole cell lysates or nuclear extracts as previously described.

U2932 lymphoma cells = test: U2932 lymphoma model in NSG mice (tumor growth, liver metastasis, overall survival); type: in vivo
Experimental: For the lymphoma model, U2932 cells (5 × 10^6) suspended in PBS-matrigel (v/v, 1:1) were subcutaneously injected into NSG mice on Say 0. Starting on Day 49, NP-G2-044 was given once a day for 5 days every week by gavage at 300 mg kg^−1 per mouse until their death. Starting on Day 49, LY2409881 was given once weekly by intraperitoneal injection at 50 mg kg^−1 per mouse for 8 times. The control solvent was given according to their body weights until their death. […] The primary tumors and livers shown in the figure were dissected on Day 67.

U2932 cells = test: Cell growth assay, U2932; settings: U2932 cells in culture, 4 days
Experimental: We then extended our search to other types of lymphoma cells. […] Both U2932 and Ly10 cells are ABC-subtype DLBCLs, and HT cells are diffuse mixed lymphoma.
For NP-G2-044 dose-dependent studies, 1 × 10^5 Ly10, U2932, or HT cells were seeded in a 12- or 24-well plate on day 0. A total of 1, 3, 10, 30, or 100 μM NP-G2-044 or control solvent was added to the plates. Cells were collected and counted on day 4. For time-dependent studies, 1 × 10^5 Ly10, U2932, or HT cells were seeded in a 12- or 24-well plate on day 0. A total of 30 μM NP-G2-044, 5 μM LY2409881, 30 μM NP-G2-044 plus 5 μM LY2409881, or control solvent was added to the plates. Cells were collected and counted on Days 2 and 4. […] The cell growth index was expressed as the fold changes of cell numbers over the starting cell number. For these assays, the old medium was changed with a fresh medium containing the control solvent or the inhibitors every two days.

[5] = treatment from Day 49, vs control group

Cc1occc1C(=O)Nc1nn(Cc2ccc(C(F)(F)F)cc2)c2ccccc12 [NP-G2-044]
growth sensitivity [1]: insensitive | nuclear translocation of the p65 subunits [2]: also observed | growth of primary tumors (MDA-MB-468 tumor cells): reduced the growth of primary tumors to the same degree | increase of median overall survival (MDA-MB-468 tumor cells): ~ 50% | increase of median overall survival ([3]; male NSG mice, oral gavage 5 days per week from Day 7, compared with control group, log-rank p < 0.001): 50% | tolerability of dosage regimen ([3]; mouse, in vivo, po): well tolerated with no signs of overt toxicity | phosphorylation of PI3K, AKT kinase, JNK kinase, and STAT6 transcription factor [4]: no effect | metastasis of implanted lymphoma cells to the liver (U2932 lymphoma cells; livers dissected on Day 67): blocked the metastasis to the liver | increase of median overall survival (U2932 lymphoma cells; [5]): 79% | overall survival (U2932 lymphoma cells; [5]): increased | primary tumor growth (U2932 lymphoma cells; [5]): decreased | effect on cell growth (U2932 cells): inhibitory effect
